The values below come from patent publication US20090263429A1, “Method of Preparing a Hydrogel” (The University of Manchester, priority 2005, published 2009).

The nature of this data set: 96 well screen of Fmoc/Cbz-amino acid and dipeptide with thermolysin (gelation). It is filed as physicochemical. The conditions noted are these: Fmoc-G and GG with thermolysin, 20 mM Fmoc-aa, 48 hours at room temperature. The method, then:
Fmoc-amino acids or Cbz-amino acids with dipeptides were weighed in to a clean universal to the different concentrations and the various ratios required. They were then suspended in deionised water, and solubilized by the addition of 0.5M NaOH to adjust the pH to 13. The particle size was reduced through the reduction of larger clumps by gentle manipulation with a spatula, and the subsequent immersion in a sonication bath. […] The pH was reduced by the addition dropwise from a 200 μl pipette of 0.1 M HCl with gentle vortexing until the value reached 7. […] Upon acquisition of a neutral pH, de-ionised water was added up to the required volume.
The enzyme, thermolysin, was provided in the form of a lyphophilized powder. This was weighed to a sterile universal, and then reconstituted in distilled water to a concentration of 1 mg/ml. In order to ensure the enzyme was fully solubilised, the solution was vortexed for thirty seconds, and stored at room temperature within a sealed container and used within thirty minutes. […]
A 96 well format was developed to screen large numbers of combinations of reactant ratios and concentrations. […] Relative quantities of these were added. […] Sufficient quantities of distilled water were added to make up to a final volume of […]. […] Results of the reactions were measured by HPLC, and the degree of conversion of Fmoc/Cbz-amino acid to Fmoc/Cbz-tripeptide was calculated.

As for Fmoc-triGlycine [Fmoc-GGG], the gel formation result is given as “doesn't form a gel”.
